Earlier results, collected in the CATMoS acute toxicity set (Mansouri et al. 2021).
Values joined by “and” are separate entries in the source; they are usually repeats but may differ in a detail not shown here. Equal values may be shown once.

Assay: rat acute oral toxicity
Settings: in vivo
From the text: […]The data set underlying the modeling effort for this project was initially compiled by NICEATM and U.S. EPA’s CCTE. Briefly, LD50 data were collected from rat acute oral systemic toxicity tests, including limit tests, ranges/confidence intervals, and discrete LD50 values. The full data set included 21,200 LD50 entries for 15,688 substances. […] Data were reviewed to ensure that LD50 values with obvious errors in the extracted data such as unit conversion errors (e.g., comma and decimal separator misplacements) were either fixed or removed. After this review, 16,209 LD50 values remained. Many of the chemicals represented had multiple LD50 entries, requiring that a single representative value per Chemical Abstracts Service Registry Number (CASRN) identifier be defined to facilitate modeling efforts. Based on ATWG feedback and to define the representative LD50 as a protective value while accounting for the distribution across multiple LD50s, the median of the lowest quartile was computed using only discrete LD50 values (omitting limit test data and range and confidence interval data). A detailed summary of the data compilation is available online on the NICEATM webpage dedicated to the collaborative modeling project (NTP 2020).
[…][…] For categorical designations, limit test and range/confidence interval LD50 data were integrated wherever possible. As such, the number of chemicals with end point values/calls varies across the modeling end points (Table 3) based on whether chemicals had representative LD50 values and/or other data. If a chemical had both, the representative value was used to determine categorical calls rather than limit test data. Some data were useable only for certain end points and categories depending on the thresholds. For example, ranges that spanned multiple hazard categories were considered only for the binary (very toxic/nontoxic) end points and omitted from rendering a determination for hazard category assignment.
[…]The final data set comprising 11,992 chemicals was split into training and evaluation sets […], respectively. This process was performed semirandomly by ordering chemicals based on the five end points (categorical and continuous LD50 values) and partitioning every fourth record into the evaluation set accordingly. This approach was taken to ensure an equivalent distribution of the LD50 values and the different hazard categories between the training and the evaluation sets without supervised sampling of the chemicals based on structures (Figure 1A). The sources of the chemical structures were also kept equivalent between the two sets, with chemical structures obtained from DSSTox, being the highest quality, representing over 75% of each set (Figure 1B).

SMILES | LD50
Cc1cc(C(C#N)c2ccc(Cl)cc2)c(Cl)cc1NC(=O)c1cc(I)cc(I)c1O (configuration not stated) | 262 mg/kg
C=C1/C(=C/C=C2/CCC[C@]3(C)[C@@H]([C@H](C)CCCC(C)C)CC[C@@H]23)C[C@@H](O)C[C@@H]1O | 0.34 mg/kg
CCn1cc(C(=O)O)c(=O)c2cc(F)c(N3CCN(C)CC3)cc21 | 2500 mg/kg
CNP1(=S)OCc2cc([N+](=O)[O-])ccc2O1 (configuration not stated) | 125 mg/kg
C=CCOC(=O)/C=C\C(=O)OCC=C | 300 mg/kg
O=C(NNCc1ccccc1)c1ccccn1 | 240 mg/kg
CN(C)CCC=C1c2ccccc2CS(=O)c2sccc21 (configuration not stated) | 319 mg/kg
ClCNc1cc(Cl)ccc1Oc1ccc(Cl)cc1 | 726 mg/kg
CCC(C)=CCCC(C)=O | 3570 mg/kg
CNC(=O)Oc1cc(C)c(NC(=O)O)c(C)c1 | 71 mg/kg
C=CS(C)(=O)=O | 570 mg/kg
CCNC(=O)Oc1c(Cl)c(Cl)cc2[nH]c(C(F)(F)F)nc12 | 103 mg/kg
Fc1c(Cl)c(Cl)c(Cl)c2[nH]c(C(F)(F)F)nc12 | 0.847 mg/kg
COc1ccc2c(c1)Sc1ccccc1N2C1CCCN(C)C1 (configuration not stated) | 750 mg/kg
C=CC(C)CCCC(C)(C)O (configuration not stated) | 3600 mg/kg
CCN(CCO)CCn1c(Cc2ccccc2)nc2c1c(=O)n(C)c(=O)n2C | 1140 mg/kg
CN(C)CCC=C(c1ccccc1)c1ccc(C(F)(F)F)cc1 | 1000 mg/kg
Nc1ccc(C(F)(F)F)c(NC(=O)c2cccnc2)c1 | 800 mg/kg
C=CCSC(C)C1(CC=C)C(=O)N=C(O)NC1=O (configuration not stated) | 346 mg/kg
CCCS(=O)(=O)/C=C/S(=O)(=O)CCC | 200 mg/kg
CC1(C)NC(=O)N(c2ccc([N+](=O)[O-])c(C(F)(F)F)c2)C1=O | 195 mg/kg
CCCC1=NN(c2ccccc2)C(=O)C1C=O (configuration not stated) | 765 mg/kg
COP(=S)(OC)SCn1nc(-c2ccccc2)ccc1=O | 18800 mg/kg
Cc1cc(O)c(C)c(C)c1O | 3200 mg/kg

SMILES | LD50
COc1ccc(NC(=O)N(C)C)cc1Cl | 1600 mg/kg
O=C1C(CCC2CC2)C(=O)N(c2ccccc2)N1c1ccccc1 | 400 mg/kg
CCCCC(C)(C)O | 820 mg/kg
CC(C)Oc1cc(-n2nc(C(C)(C)C)oc2=O)c(Cl)cc1Cl | 3500 mg/kg
O=C(O)c1cc2ccccc2oc1=O | 200 mg/kg
CS(=O)(=O)OC(CCN1CCCCC1)(c1ccccc1)c1ccccc1 | 1240 mg/kg
C1CN2CCC1CC2 | 81.2 mg/kg
OCCCCC(O)CO (configuration not stated) | 15500 mg/kg
Cc1ncc([N+](=O)[O-])n1CCO | 3000 mg/kg
CN(C)C(=O)Oc1c(Cl)c(Cl)cc2[nH]c(C(F)(F)F)nc12 | 41 mg/kg
c1ccc2c(c1)CCCC2 | 2860 mg/kg
COC1CCC(OC2C(C)C(O)(C(C)C(=O)O)OC(CC3CC(OC)C(C)C4(O3)OC(C)(C3CCC(C5CCC(C6OC(C)(O)C(C)C(OC)C6C)O5)O3)C(OC)C4C)C2(C)OC)OC1C (configuration not stated) | 7 mg/kg
CCCOc1ccc(C=CC(=O)OCC)cc1OC | 978 mg/kg
NCCC=C1c2ccccc2COc2ccccc21 | 960 mg/kg
CN(C)CCOc1ccccc1Cc1ccccc1 | 1470 mg/kg and 1400 mg/kg
O=C(c1ccc2c(c1)C(=O)OC2=O)c1ccc2c(c1)C(=O)OC2=O | 12800 mg/kg
Cc1cc(-c2ccc(N=Nc3c(S(=O)(=O)O)cc4cc(S(=O)(=O)O)cc(N)c4c3O)c(C)c2)ccc1N=Nc1c(S(=O)(=O)O)cc2cc(S(=O)(=O)O)cc(N)c2c1O | 6200 mg/kg
CCNc1nc(NC(C)(C)C)nc(SC)n1 | 2040 mg/kg
O=C1C[C@@H]2OCC=C3CN4CC[C@]56c7ccccc7N1[C@H]5[C@H]2[C@H]3C[C@H]46 | 16.2 mg/kg
CCCCCCCCCCO | 4720 mg/kg
C=C(CC(C)(C)c1ccccc1)c1ccccc1 | 300 mg/kg
c1ccc(-c2nnco2)cc1 | 440 mg/kg
CC(C(=O)O)c1ccc2oc(-c3ccc(F)cc3)nc2c1 (configuration not stated) | 521 mg/kg
